In test [1] the test system is paternal Ube3a-YFP allele in spinal neurons. The test is described as follows: Intrathecal delivery, paternal Ube3a-YFP in spinal cord. The conditions noted are these: for unsilencing of paternal Ube3a-YFP after intrathecal injection: i.t. 5 μl, irinotecan 1000 nmol/day for 5 days, topotecan 200 nmol/day for 6 days. In kind it is in vivo, mouse. How it is done:
A soft cloth is placed over the head and upper body of the animal to keep him calm. The experimenter grasps the pelvic girdle of mouse with his thumb and forefinger. Next, the experimenter traces the spinal column of the mouse with a needle. The disposable 30 gauge ½ inch needle is connected to a 50 ul Luer-hub Hamilton syringe. As long as the experimenter senses the bones of the spinal column, the angle of syringe is lowered at 45 degree to the horizontal. The experimenter inserts the needle 1 mm further to the spinal column. Following the 5 ul injection, the syringe is rotated slightly and removed. […] They are 100, 500 and 1000 nmole. Paternal Ube3a-YFP (+/Ey) mice are used throughout these experiments.
For immunocytochemistry in spinal cord, lumbosacral spinal cord (approximately L1 to S2 and inclusive of the area corresponding to intrathecal injection site) was removed from each mouse and immersion-fixed for 8 h in cold 4% paraformaldehyde/0.1M phosphate buffer (pH 7.4). After a period of cryoprotection in 30% sucrose in 0.1M phosphate buffer, each spinal cord was sectioned on a cryostat at 40 μm. Sections to be stained immediately were collected in PBS; sections to be saved for future study were placed in a PBS/ethylene glycol/glycerol solution and stored at −20° C. Every fourth section was incubated overnight in a mixture containing a chicken IgY to GFP (1:750; Ayes Labs, GFP-1020) and a mouse IgG1 to NeuN (1:250; Millipore, MAB377) and treated the following day with a cocktail containing goat anti-chicken IgY-Alexa 488 (1:200; Invitrogen, A-11039), goat anti-mouse IgG1-Alexa 568 (1:200; Invitrogen, A-21124), and DRAQ5 (1:10,000; Axxora, BOS-889-001). Immunostained sections were mounted from PBS onto SuperFrostPlus Slides (Fisher), which were then air-dried briefly, rehydrated with PBS, and coverslipped with FluoroGel (Electron Microscopy Sciences). For quantification studies, sections were imaged using a Nikon Eclipse 80i with Surveyor mosaic imaging software. For qualitative assessment, sections were imaged as maximal projections on a Zeiss LSM 510.
For cell counting in spinal cord, 14 to 18 sections per mouse in segments corresponding to the injection site were analyzed. Slices were imaged using a Nikon Eclipse 80i microscope equipped with a QimagingRetigaExi high-speed CCD camera system and Surveyor mosaic imaging software using a 10× objective. For qualitative purposes, selected sections were also imaged on a Zeiss LSM 510 confocal microscope. Cells were counted manually by individuals blind to the experimental groups from raw (unprocessed) images using ImageJ and Cellprofiler^35 software.
YFP intensity levels from confocal XYZ image stacks were measured using a semi-automated macro with ImageJ. Individual YFP-positive cells were selected by eye, the criteria being the Z plane having the largest area for each cell. Cell regions were defined by intensity thresholding or manual tracing and the average YFP intensity and percent saturation were calculated for each cell.
Following the injection, the syringe is rotated slightly and removed.

Test [2] relates to paternal Ube3a allele in brain. Nature of the test: Intracerebroventricular delivery, paternal Ube3a in brain. The class given is in vivo, mouse. How it is done:
In order to unsilence paternal Ube3a in vivo with an emphasis on brain, I.C.V. with osmotic minipump was performed. […] Paternal Ube3a-YFP mice were anesthetized with Ketamine/Xylazine (120 mg/kg; 9 mg/kg) and positioned in a stereotaxic head frame. The scalp is shaved and cut, and the skull exposed. The local anesthetic (Bupivacaine, 2.5 mg/ml) is applied on the top of skull and mineral oil is applied on the eyes of the mice. Acetone is applied on the skull to remove any lipid tissues on the skull as well as to dry the skull surface for optimal adhesion. Next, a cannula (Brain Infusion Kit 1, DURECT Corporation) is positioned into a lateral ventricle at the following coordinates (−0.3 mm A/P, +/−1.0 mm M/L, −3.0 mm D/V). The free end of the cannula is connected to an Alzet osmotic minipump via a 2.5-cm-long piece of polyethylene (PE) tubing (cat. no. 0007750, DURECT Corporation). […] The filled pumps are incubated in sterile saline at 37° C. for at least 4 to 6 hours for priming before being implanted under the dorsal skin of the mouse's back. A needle driver is used to create a subcutaneous pocket in the scapula region to accommodate filled pumps. The cannula base and the attached piece of PE tubing are fixed to the skull with loctite cyanoacrylic. The incision site is closed with prolene suture. During and after surgery, mice are placed on a heating pad. Body weight of mice is recorded daily to assess mouse health. Seven days following minipump implantation, mice are sacrificed following pentobarbital overdose (150 mg/kg, I.P.) and brains are removed for immunofluorescence staining or Western blot analysis.
For immunocytochemistry in brain tissues, mice were perfused with 4% PFA in 0.1M PBS, postfixed overnight, and cryoprotected with 20% sucrose in 0.1M phosphate buffer (PB), pH=7.4 for two days. 60 μm sections were collected and permeabilized with 0.3% Triton X-100 in 0.1M PB for 30 min, and blocked by 5% goat serum for 1 hr. Sections were incubated with rabbit polyclonal antibody to GFP (1:1000, Novus Biologicals, NB600-308) at 4° C. overnight and then incubated with Alexa Fluor 488 goat antibody to rabbit IgG and DAPI for 2 hr at room temperature. Images were acquired using a Zeiss LSM 510 and 710 confocal microscopes.
For optical intensity measurement in selected brain regions, sections were imaged using a Zeiss LSM 510 confocal microscope. With custom macros created using ImageJ software^34, optical intensity of UBE3A-YFP was measured in different regions of hippocampus and striatum from vehicle- and topotecan-treated mice. Image intensity levels were normalized to background intensities from appropriate regions in vehicle-treated mice. Brain sections between Bregma −1.22 mm and −2.06 mm were chosen for analysis (n=5 sections/mouse for hippocampus and n=3 to 5 sections/mouse for striatum).
Mice with paternal Ube3a-YFP (Ube3a^m+/pYFP) were anesthetized with ketamine/xylazine (120 mg/kg; 9 mg/kg) and positioned in a stereotaxic apparatus. The scalp was shaved and cut, and the skull exposed. The local anesthetic (bupivacaine, 2.5 mg/ml) was applied to the skull, and mineral oil was applied to protect the eyes of the mice. Acetone was applied on the skull to remove any lipid tissues on the skull as well as to dry the skull surface for optimal adhesion. Next, a cannula (Brain Infusion Kit 1, DURECT Corporation) was positioned into a lateral ventricle at the following coordinates (−0.3 mm A/P, +1.0 mm M/L, −2.5 mm DN), as described^40. The free end of the cannula was connected to a mini-osmotic pump (Alzet, Model 2001 or 2002) via a 2.5 cm piece of polyethylene (PE) tubing (DURECT Corporation). […] The filled pumps were incubated in sterile saline at 37° C. for at least 4 hr before being implanted under the dorsal skin of the mouse's back. The cannula base and the attached piece of PE tubing were fixed to the skull with Loctite cyanoacrylic 454. The incision site was closed with prolene suture. […]

Each structure is given as a SMILES string. “And” between values parts separate entries of the source, which are not always exact repeats. Identical values can stand only once.

For the compound `CCc1c2c(nc3ccc(OC(=O)N4CCC(N5CCCCC5)CC4)cc13)-c1cc3c(c(=O)n1C2)COC(=O)[C@]3(O)CC` [Irinotecan], the “unsilencing of paternal Ube3a-YFP after intrathecal injection” value in test [1] was “unsilenced the paternal Ube3a-YFP allele in spinal neurons and in DRG neurons”. In addition, the “Ube3a levels in Angelman syndrome model mice” value in test [2] (i.c.v.) is listed as “significantly increased Ube3a levels”.

With `CC[C@@]1(O)C(=O)OCc2c1cc1n(c2=O)Cc2cc3c(CN(C)C)c(O)ccc3nc2-1` [Topotecan], the “number of paternal UBE3A-YFP-positive cells in lumbar spinal cord” value in test [1] (50 nmol/5 μL i.t. once daily, 10 of 14 days) is “significantly increased the number of paternal UBE3A-YFP-positive cells”. Also, the “expression level of unsilenced paternal UBE3A-YFP versus maternal controls” value in test [1] (i.t. 50 nmol/day for 10 of 14 days) is given as “expressed at levels comparable to maternal UBE3A-YFP controls”. For the same compound, the “percentage of UBE3A-YFP+ cells that were NeuN+” value in test [1] (i.t. 50 nmol/day for 10 of 14 days, paternal Ube3a-YFP mice) is > 93% and 93.25%. In test [1] (i.t. 50 nmol/day for 10 of 14 days, spinal neurons), the “time unsilencing of Ube3a-YFP was maintained after cessation of treatment” value was “at least 12 weeks”. For the same compound, in test [1] (i.t. 100 nmol/day on 10 of 14 days, 14 days washout), the “persistence of unsilencing 14 days after cessation” value is given as “unsilencing of paternal Ube3a persists”. Also, the “unsilencing of paternal Ube3a-YFP after intrathecal injection” value in test [1] is “unsilenced the paternal Ube3a-YFP allele in spinal neurons and in DRG neurons”. The “effectiveness at unsilencing in spinal cord compared with irinotecan” value in test [1] (i.t., FIG. 8 Panels B and C) was “even more effective at unsilencing paternal Ube3a in spinal cord”. Further, in test [2] (i.c.v. 3.74 μg/h for two weeks), the “mice with robust unsilencing in cerebral cortex near the infused ventricle” value is “two of five mice”; the “unsilencing of paternal Ube3a, cerebellum” value is given as “no effect in the cerebellum”; the “unsilencing of paternal Ube3a, contralateral (non-infused) hemisphere” value is reported as “only a modest effect”. For the same compound, the “unsilencing of paternal Ube3a, infused hemisphere” value in test [2] (i.c.v. 3.74 μg/h for two weeks, mini-osmotic pump) was “unsilenced paternal Ube3a in the hippocampus, striatum, and cerebral cortex of the infused hemisphere”. Further, the “unsilencing of paternal Ube3a, cerebellar Purkinje neurons” value in test [2] (i.c.v. 21.6 μg/h for five days) is recorded as “did unsilence the paternal allele of Ube3a in Purkinje neurons of the cerebellum”. Besides, in test [2] (i.c.v. osmotic minipump, one week), the “paternal Ube3a-YFP protein in brain after ICV infusion (Example 3)” value is “increased paternal Ube3a-YFP protein levels throughout the brain”.

Values taken from patent publication US10301630B2, “Methods and compositions for unsilencing imprinted genes” (The University of North Carolina at Chapel Hill, priority 2010, dated 2019).
